{
  "source": "patent US20170128448A1",
  "about": "“COMBINATION THERAPY FOR CANCER” (Celgene Corporation, priority 2014, published 2017)",
  "key": {"[1]": {"system": "DLBCL cell lines (Oci-Ly10, WSU-DLCL2)", "test": "8-day cytotoxicity assay (cell titer glo), DLBCL lines", "assay_type": "cell-based", "details": "Compound A 200 nM for 8 days + obinutuzumab (GA101) 0 to 10,000 ng/mL last 24 hours", "protocol": "(§1) In vitro combination efficacy studies were performed with Compound A and obinutuzumab (GA101). Two follicular (RL and DoHH2) and two diffuse large B cell lymphoma (DLBCL) (Oci-Ly10, WSU-DLCL2) cell lines were treated with either single agent Compound A (200 nM), single agent obinutuzumab (0 to 10,000 ng/mL) or in combination in 8-day cytotoxicity assays (cell titer glo). In both the single agent and combination studies, the cells were treated with Compound A for 8 days and with obinutuzumab treatment on the last 24 hours in the combination studies."}, "[2]": {"test": "First-in-human study of Compound A, Part A dose escalation", "assay_type": "in vivo", "details": "for dose limiting toxicities (DLT) observed: in vivo", "protocol": "(§2) The first-in-human study of Compound A is being conducted in a broad tumor population including diverse solid tumors, lymphoma and MM. Part A of the study used a Compound A starting dose of 0.5 mg QD on a continuous dosing schedule. Using allometric scaling, this dose represented a dose ˜20-fold below the highest non-severely toxic dose (HNSTD) in primates based on preclinical toxicology studies. Part A dose escalation proceeded in 0.5 mg increments (0.5, 1.0, 1.5, 2.0, 2.5, 3.0, 3.5 mg) and established the nontolerated dose (NTD) at 3.5 mg QD and the MTD at 3.0 mg QD. […] In Part B, parallel expansion cohorts (14 to 20 subjects each) in 4 tumor indications (MM, NHL, HCC and gliomas) were subsequently enrolled at a dose of 3.0 mg QD. Given that subjects with CLL may be more sensitive to the side effects of immunomodulatory agents (IMiDs®) and other cereblon-binding agents, and the clinical safety, PK and pharmacodynamics data observed with Compound A to date, a lower Compound A starting dose of 0.25 mg QD was used in a CLL population."}, "[3]": {"system": "follicular lymphoma cell lines (RL and DoHH2)", "test": "8-day cytotoxicity assay (cell titer glo), follicular lymphoma lines", "assay_type": "cell-based", "details": "Compound A 200 nM for 8 days + obinutuzumab (GA101) 0 to 10,000 ng/mL last 24 hours; FL lines", "protocol": "as §1"}, "[4]": {"system": "WSU-DLCL2 lymphoma xenograft", "test": "WSU-DLCL2 lymphoma xenograft model", "assay_type": "in vivo", "details": "for complete regressions, % of animals: WSU-DLCL2", "protocol": "(§3) In combination with rituximab, Compound A at 3 and 30 mg/kg induced complete regressions in 60% and 90% of animals, respectively."}, "[5]": {"system": "panel of lymphoma and MM cell lines", "test": "Immunomodulatory and anti-proliferative activity against a panel of cell lines", "assay_type": "cell-based", "protocol": "(§4) A second consideration for the starting dose of Compound A is based on the relative in vitro potency between Compound A and lenalidomide and the relative human safety and tolerability of lenalidomide in CLL. […] Clinical exploration of lenalidomide in CLL has established 5 mg to be a tolerable starting dose."}, "[6]": {"system": "human NK cell", "test": "NK cell IFN-γ production in response to immobilized Ig-G and IL-2 stimulation", "assay_type": "cell-based", "details": "read-out: EC50, enhancement of NK cell IFN-γ production", "source_text": "Without being bound by a particular theory, Compound A is believed to enhance the human NK cell killing function, antibody-dependent cellular cytotoxicity (ADCC), in rituximab coated lymphoma cell lines."}, "[7]": {"system": "TNF-α", "test": "Cytokine inhibition in LPS-stimulated hPBMC and human whole blood: TNF-α", "assay_type": "cell-based", "source_text": "(§5) TNF-α is an inflammatory cytokine produced by macrophages and monocytes during acute inflammation. TNF-α is responsible for a diverse range of signaling events within cells. TNF-α may play a pathological role in cancer. Without being limited by theory, one of the biological effects exerted by Compound A is the reduction of synthesis of TNF-α. Compound A enhances the degradation of TNF-α mRNA."}, "[8]": {"system": "human CLL cells", "test": "Primary cultures of human CLL cells", "assay_type": "cell-based", "details": "in 70% of samples tested", "protocol": "as §4"}, "[9]": {"details": "in vivo", "protocol": "as §2"}, "[10]": {"system": "DoHH2 lymphoma xenograft", "test": "DoHH2 lymphoma xenograft model", "assay_type": "in vivo", "protocol": "as §3"}, "[11]": {"system": "IL-1β", "test": "Cytokine inhibition in LPS-stimulated hPBMC and human whole blood: IL-1β", "assay_type": "cell-based", "source_text": "as §5"}, "[12]": {"system": "IL-10", "test": "Cytokine stimulation in LPS-stimulated hPBMC and human whole blood: IL-10", "assay_type": "cell-based", "source_text": "as §5"}, "[13]": {"system": "T cells", "test": "T cell co-stimulation", "assay_type": "cell-based", "details": "under appropriate conditions"}, "[14]": {"details": "cited from earlier work"}, "[15]": {"system": "DLBCL cell lines", "details": "lenalidomide with ibrutinib (Yang, 2012); cited from earlier work"}, "[16]": {"details": "continuous dosing, solid tumors, lymphoma and MM"}},
  "data": [
    {"compound": "Cc1nc2cccc(N)c2c(=O)n1C1CCC(=O)NC1=O", "note": "(centres unmarked) [Compound A, 3-(5-amino-2-methyl-4-oxo-4H-quinazolin-3-yl)-piperidine-2,6-dione]", "values": [
      {"measurement": "combination effect on cytotoxicity", "setting": "[1]", "value": "additive"},
      {"measurement": "MTD", "setting": "[2]; [16]", "value": 3.0, "unit": "mg QD"},
      {"measurement": "nontolerated dose (NTD)", "setting": "[2]; [16]", "value": 3.5, "unit": "mg QD"},
      {"measurement": "dose limiting toxicities (DLT) observed", "setting": "[2]; human", "value": "Grade 3 fever and fatigue and Grade 3 muscle weakness"},
      {"measurement": "dose limiting toxicities (DLT) observed", "setting": "[2]", "value": "No DLTs"},
      {"measurement": "combination effect on cytotoxicity", "setting": "[3]", "value": "synergistic"},
      {"measurement": "complete regressions, % of animals", "setting": "[4]; Compound A 3 mg/kg in combination with rituximab", "value": 60, "unit": "%"},
      {"measurement": "complete regressions, % of animals", "setting": "[4]; Compound A 30 mg/kg in combination with rituximab", "value": 90, "unit": "%"},
      {"measurement": "effect as single agent", "setting": "[4]; WSU-DLCL2 study, Compound A single agent", "value": "minimal effects"},
      {"measurement": "tumor growth inhibition, administered with rituximab", "setting": "[4]; WSU-DLCL2 xenograft, administered with rituximab", "value": "dose-dependent tumor growth inhibition"},
      {"measurement": "potency relative to lenalidomide, immunomodulatory and anti-proliferative activity", "setting": "[5]", "value": "~10", "unit": "fold"},
      {"measurement": "EC50", "setting": "[6]", "value": 1.5, "unit": "nM"},
      {"measurement": "inhibition of TNF-α", "setting": "[7]", "value": "markedly inhibits"},
      {"measurement": "potency relative to lenalidomide", "setting": "[8]", "value": "~5", "unit": "fold"},
      {"measurement": "starting dose relative to highest non-severely toxic dose (HNSTD) in primates, fold below", "setting": "[9]", "value": "~20", "unit": "fold"},
      {"measurement": "tumor growth inhibition, single agent", "setting": "[10]; Compound A single agent at 3 and 30 mg/kg", "value": "modest dose-dependent tumor growth inhibition"},
      {"measurement": "tumor growth delay, combination with rituximab", "setting": "[10]; in combination with rituximab", "value": "significantly and dose-dependently delayed tumor growth"},
      {"measurement": "inhibition of IL-1β", "setting": "[11]", "value": "potently inhibits"},
      {"measurement": "effect on IL-10", "setting": "[12]", "value": "stimulates"},
      {"measurement": "T cell co-stimulation, cell proliferation", "setting": "[13]", "value": "increased cell proliferation in a dose dependent manner"}
    ]},
    {"compound": "Nc1cccc2c1CN(C1CCC(=O)NC1=O)C2=O", "note": "(centres unmarked) [lenalidomide]", "values": [
      {"measurement": "effect of intermittent dosing schedule in CLL", "setting": "[14]; 21 of 28 day cycles, during the 7 day drug holidays (Chen, 2011)", "value": "rebound lymphocytosis"},
      {"measurement": "tolerable starting dose in CLL", "setting": "[14]; CLL patients", "value": 5, "unit": "mg"},
      {"measurement": "combination effect of lenalidomide and ibrutinib on killing of DLBCL cell lines", "setting": "[15]", "value": "synergistically kill"}
    ]},
    {"compound": "C=CC(=O)N1CCC[C@@H](n2nc(-c3ccc(Oc4ccccc4)cc3)c3c(N)ncnc32)C1", "note": "[ibrutinib]", "values": [
      {"measurement": "combination effect of lenalidomide and ibrutinib on killing of DLBCL cell lines", "setting": "[15]", "value": "synergistically kill"}
    ]},
    {"compound": "GA101: humanized type II monoclonal antibody that binds to CD20 and triggers destruction of B-cells", "values": [
      {"measurement": "combination effect on cytotoxicity", "setting": "[1]", "value": "additive"},
      {"measurement": "combination effect on cytotoxicity", "setting": "[3]", "value": "synergistic"}
    ]}
  ]
}
